Source: patent publication US10723699B2 (Hyundai Pharm Co., Ltd., priority 2015, dated 2020)
Read-outs that look alike come from different tables or passages of the source.

Biological target: T1, G protein-coupled receptor 119 (GPR-119) (Mesocricetus auratus, UniProt A0A1U8CD06)
T1 construct: hamster-derived β-cells containing G protein-coupled receptor 119 (GPR-119), HIT-T15 cells; host or cells: HIT-T15 (hamster pancreatic β-cells)
T1 sequence (A0A1U8CD06 1-334): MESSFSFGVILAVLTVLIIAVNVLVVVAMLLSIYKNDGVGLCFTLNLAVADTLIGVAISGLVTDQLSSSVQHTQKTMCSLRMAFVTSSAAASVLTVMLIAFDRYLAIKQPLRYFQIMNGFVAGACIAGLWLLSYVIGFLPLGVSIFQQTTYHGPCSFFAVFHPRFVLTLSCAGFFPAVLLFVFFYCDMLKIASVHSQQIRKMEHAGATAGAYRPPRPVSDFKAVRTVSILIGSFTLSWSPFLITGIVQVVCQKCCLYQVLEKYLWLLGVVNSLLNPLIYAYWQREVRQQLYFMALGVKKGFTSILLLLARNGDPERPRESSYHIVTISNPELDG
Assay: cAMP activity in HIT-T15 cells (cAMP dynamic kit, FRET)
Assay type: cell-based, hamster
Protocol: To check whether the cyclohexene derivatives according to the present invention activate cyclic adenosine monophosphate (cAMP), experiments were carried out, as follows.
The HIT-T15 cells were plated on a 96-well plate at 60,000 cells per well. On the next day of plating, the cells were treated with a varying concentration of each of the example compounds according to the present invention, and incubated at 37° C. for an hour. In this case, each of the treated compounds was used at six concentrations, ranging from 0.0032 to 10 μM, to treat the cells.
The cyclic adenosine monophosphate (cAMP) activity was measured according to the manufacturer's instruction using a cAMP dynamic kit commercially available from Cis Bio Inc. (Bedford, Mass.). The cells were lysed, and a level of cAMP was determined by a competitive immunoassay using D2-labeled cAMP and a cryptate-labeled anti-cAMP antibody. Fluorescence was read in Flex Station (Molecular Devices). […] Unlabeled cAMP in the cell lysate competed with the D2-labeled cAMP against the cryptate-labeled antibody. Since a decrease in the measured intensity of the FRET signals represents a level of cAMP in the cells, the cAMP activities of the compounds are calculated as a change in FRET signals by adjusting an amount of dimethyl sulfoxide (DMSO).

[1] = 1 hour at 37° C., six concentrations 0.0032 to 10 μM, read-out: EC50

| SMILES | EC50 [1] [µM] | EC50 (Table 2, read-out: EC50 value) [µM] |
| --- | --- | --- |
| CC(C)c1noc(N2CCC(COc3ccc(C4=CCC(C(=O)N5CCN(CCCO)CC5)CC4)cc3F)CC2)n1 (centres unmarked) [Example 368, (4-(3-fluoro-4-((1-(3-isopropyl-1,2,4-oxadiazol-5-yl)piperidin-4-yl)methoxy)phenyl)cyclohex-3-enyl)(4-(3-hydroxypropyl)piperazin-1-yl)methanone] | 0.048 | ≤ 0.05 |
| CCc1cnc(N2CCC(COc3ccc(C4=CCC(C(=O)NCC(C)(C)CO)CC4)cc3)CC2)nc1 (centres unmarked) [Example 177, 4-(4-((1-(5-ethylpyrimidin-2-yl)piperidin-4-yl)methoxy)phenyl)-N-(3-hydroxy-2,2-dimethylpropyl)cyclohex-3-enecarboxamide] |  | ≤ 0.05 |
| CC(C)(C)OC(=O)N1CCC(COc2ccc(C3=CCC(C(=O)N4CCCC4)CC3)nc2)CC1 (centres unmarked) [Example 312, tert-butyl 4-((6-(4-(pyrrolidine-1-carbonyl)cyclohex-1-enyl)pyridin-3-yloxy)methyl)piperidine-1-carboxylate] | 0.12 |  |
| CCc1cnc(N2CCC(COc3ccc(C4=CCC(C(=O)N5CCC(F)(F)C5)CC4)c(F)c3)CC2)nc1 (single isomer, unassigned; (-)) [Example 461, (−)-(3,3-difluoropyrrolidin-1-yl)(4-(4-((1-(5-ethylpyrimidin-2-yl)piperidin-4-yl)methoxy)-2-fluorophenyl)cyclohex-3-enyl)methanone] | 0.091 |  |
| CC(C)c1noc(N2CCC(COc3ccc(C4=CCC(C(=O)N5CCN(C6CC6)CC5)CC4)cc3F)CC2)n1 (centres unmarked) [Example 348, (4-cyclopropylpiperazin-1-yl)(4-(3-fluoro-4-((1-(3-isopropyl-1,2,4-oxadiazol-5-yl)piperidin-4-yl)methoxy)phenyl)cyclohex-3-enyl)methanone] | 0.014 | ≤ 0.05 |
| CCc1cnc(N2CCC(COc3ccc(C4=CCC(C(=O)N5CCN(C(=O)C=C(C)C)CC5)CC4)cc3)CC2)nc1 (centres unmarked) [Example 414, 1-(4-(4-(4-((1-(5-ethylpyrimidin-2-yl)piperidin-4-yl)methoxy)phenyl)cyclohex-3-enecarbonyl)piperazin-1-yl)-3-methylbut-2-en-1-one] | 0.027 | ≤ 0.05 |
| CCc1cnc(N2CCC(COc3ccc(C4=CCC(C(=O)NCCO)CC4)cc3F)CC2)nc1 (centres unmarked) [Example 313, 4-(4-((1-(5-ethylpyrimidin-2-yl)piperidin-4-yl)methoxy)-3-fluorophenyl)-N-(2-hydroxyethyl)cyclohex-3-enecarboxamide] | 0.12 |  |
| CCc1cnc(N2CCC(COc3ccc(C4=CCC(C(=O)N5CCC(F)(F)CC5)CC4)c(F)c3)CC2)nc1 (centres unmarked) [Example 453, (4,4-difluoropiperidin-1-yl)(4-(4-((1-(5-ethylpyrimidin-2-yl)piperidin-4-yl)methoxy)-2-fluorophenyl)cyclohex-3-enyl)methanone] | 0.012 | ≤ 0.05 |
| CC(C)(C)OC(=O)N1CCC(COc2ccc(C3=CCC(C(=O)N4CCC(=NO)CC4)CC3)nc2)CC1 (centres unmarked) [Example 344, tert-butyl 4-((6-(4-(4-(hydroxyimino)piperidine-1-carbonyl)cyclohex-1-enyl)pyridin-3-yloxy)methyl)piperidine-1-carboxylate] | 0.045 | ≤ 0.05 |
| CC(C)(C)OC(=O)N1CCC(COc2ccc(C3=CCC(C(=O)N4CCOCC4)CC3)cc2F)CC1 (single isomer, unassigned; (+)) [Example 442, (+)-tert-butyl 4-((2-fluoro-4-(4-(morpholine-4-carbonyl)cyclohex-1-enyl)phenoxy)methyl)piperidine-1-carboxylate] | 0.008 | ≤ 0.05 |
| CCc1cnc(N2CCC(COc3ccc(C4=CCC(C(=O)N5CCC[C@H]5CO)CC4)cc3)CC2)nc1 (single isomer, unassigned; (+)) [Example 466] | 0.012 | ≤ 0.05 |
| CC(C)c1noc(N2CCC(COc3ccc(C4=CCC(C(=O)N(CCO)CCO)CC4)cc3F)CC2)n1 (centres unmarked) [Example 372, 4-(3-fluoro-4-((1-(3-isopropyl-1,2,4-oxadiazol-5-yl)piperidin-4-yl)methoxy)phenyl)-N,N-bis(2-hydroxyethyl)cyclohex-3-enecarboxamide] | 0.046 | ≤ 0.05 |
| CC(C)c1noc(N2CCC(COc3ccc(C4=CCC(C(=O)N5CCC(CCO)CC5)CC4)cn3)CC2)n1 (centres unmarked) [Example 320, (4-(2-hydroxyethyl)piperidin-1-yl)(4-(6-((1-(3-isopropyl-1,2,4-oxadiazol-5-yl)piperidin-4-yl)methoxy)pyridin-3-yl)cyclohex-3-enyl)methanone] | 0.053 |  |
| CCc1cnc(N2CCC(COc3ccc(C4=CCC(C(=O)N(CC)CCO)CC4)cc3F)CC2)nc1 (centres unmarked) [Example 360, N-ethyl-4-(4-((1-(5-ethylpyrimidin-2-yl)piperidin-4-yl)methoxy)-3-fluorophenyl)-N-(2-hydroxyethyl)cyclohex-3-enecarboxamide] | 0.0088 | ≤ 0.05 |
| CC(C)(C)OC(=O)N1CCC(COc2ccc(C3=CCC(C(=O)N4CCC(CO)CC4)CC3)nc2)CC1 (centres unmarked) [Example 325, tert-butyl 4-((6-(4-(4-(hydroxymethyl)piperidine-1-carbonyl)cyclohex-1-enyl)pyridin-3-yloxy)methyl)piperidine-1-carboxylate] | 0.053 |  |
| CC(C)c1noc(N2CCC(COc3ccc(C4=CCC(C(=O)NC5CCC5)CC4)cc3F)CC2)n1 (centres unmarked) [Example 364, N-cyclobutyl-4-(3-fluoro-4-((1-(3-isopropyl-1,2,4-oxadiazol-5-yl)piperidin-4-yl)methoxy)phenyl)cyclohex-3-enecarboxamide] | 0.085 |  |
| CCc1cnc(N2CCC(COc3ccc(C4=CCC(C(=O)NC5CC5)CC4)cc3F)CC2)nc1 (centres unmarked) [Example 302, N-cyclopropyl-4-(4-((1-(5-ethylpyrimidin-2-yl)piperidin-4-yl)methoxy)-3-fluorophenyl)cyclohex-3-enecarboxamide] | 0.11 |  |

Next, values leading:

| EC50 [1] [µM] | EC50 (Table 2, read-out: EC50 value) [µM] | SMILES |
| --- | --- | --- |
| 0.14 |  | CCc1cnc(N2CCC(COc3ccc(C4=CCC(C(=O)N5CCOCC5)CC4)cc3C(F)(F)F)CC2)nc1 (centres unmarked) [Example 400, (4-(4-((1-(5-ethylpyrimidin-2-yl)piperidin-4-yl)methoxy)-3-(trifluoromethyl)phenyl)cyclohex-3-enyl)(morpholino)methanone] |
| 0.043 | ≤ 0.05 | CCc1cnc(N2CCC(COc3ccc(C4=CCC(C(=O)N5CC(=O)C5)CC4)cc3F)CC2)nc1 (centres unmarked) [Example 295, 1-(4-(4-((1-(5-ethylpyrimidin-2-yl)piperidin-4-yl)methoxy)-3-fluorophenyl)cyclohex-3-enecarbonyl)azetidin-3-one] |
| 0.045 | ≤ 0.05 | CCc1cnc(N2CCC(COc3ccc(C4=CCC(C(=O)N5CCCCC5)CC4)cc3C#N)CC2)nc1 (centres unmarked) [Example 385, 2-((1-(5-ethylpyrimidin-2-yl)piperidin-4-yl)methoxy)-5-(4-(piperidine-1-carbonyl)cyclohex-1-enyl)benzonitrile] |
| 0.11 |  | CCc1cnc(N2CCC(COc3ccc(C4=CCC(C(=O)N5CCCCC5)CC4)cc3C(F)(F)F)CC2)nc1 (centres unmarked) [Example 375, (4-(4-((1-(5-ethylpyrimidin-2-yl)piperidin-4-yl)methoxy)-3-(trifluoromethyl)phenyl)cyclohex-3-enyl)(piperidin-1-yl)methanone] |
|  | ≤ 0.05 | CCc1cnc(N2CCC(COc3ccc(C4=CCC(C(=O)N5CCC(=NO)CC5)CC4)cc3)CC2)nc1 (centres unmarked) [Example 277, (4-(4-((1-(5-ethylpyrimidin-2-yl)piperidin-4-yl)methoxy)phenyl)cyclohex-3-enyl)(4-(hydroxyimino)piperidin-1-yl)methanone] |
| 0.019 | ≤ 0.05 | CCc1cnc(N2CCC(COc3ccc(C4=CCC(C(=O)N5CCSCC5)CC4)c(F)c3)CC2)nc1 (centres unmarked) [Example 423, (4-(4-((1-(5-ethylpyrimidin-2-yl)piperidin-4-yl)methoxy)-2-fluorophenyl)cyclohex-3-enyl)(thiomorpholino)methanone] |
| 0.024 | ≤ 0.05 | CCc1cnc(N2CCC(COc3ccc(C4=CCC(C(=O)NC5CCCCC5)CC4)cc3F)CC2)nc1 (centres unmarked) [Example 305, N-cyclohexyl-4-(4-((1-(5-ethylpyrimidin-2-yl)piperidin-4-yl)methoxy)-3-fluorophenyl)cyclohex-3-enecarboxamide] |
| 0.18 |  | CCc1cnc(N2CCC(COc3ccc(C4=CCC(C(=O)N5CCNCC5)CC4)cc3F)CC2)nc1 (centres unmarked) [Example 434, (4-(4-((1-(5-ethylpyrimidin-2-yl)piperidin-4-yl)methoxy)-3-fluorophenyl)cyclohex-3-enyl)(piperazin-1-yl)methanone] |
